Experimental data: BindingDB's records for doi:10.1021/acs.jmedchem.7b01490 (Astrazeneca, 2018)

experiment: Inhibition of CHK1 in human HT29 cells assessed as abrogation of camptothecin-induced G2/M phase arrest

| EC50 [nM] | Compound |
| --- | --- |
| 30 | NC(=O)c1ccc(N[C@H]2CCCNC2)c2cc(-c3cccc(F)c3)[nH]c12 |
| 110 | CCN(c1ncc(C(N)=O)c2sc(-c3ccccc3)cc12)[C@H]1CCCNC1 |
| 3700 | NC(=O)c1cnc(N(CCO)[C@H]2CCCNC2)c2cc(-c3ccccc3)sc12 |
| 24 | NC(=O)c1cnc(N[C@H]2CCCNC2)c2cc(-c3cccc(F)c3)sc12 |
| 2300 | NC(=O)c1cnc(N[C@H]2CCCNC2)c2cc(-c3cn[nH]c3)sc12 |
| 8 | C[C@H]1NCCC[C@@H]1Nc1ncc(C(N)=O)c2sc(-c3ccccc3)cc12 |
| 340 | NC(=O)c1cnc(O[C@H]2CCCNC2)c2cc(-c3ccccc3)sc12 |
| 210 | NC(=O)c1cnc(SC2CCCNC2)c2cc(-c3ccccc3)sc12 (stereo not given) |
| 50 | C[C@@H]1NCCC[C@@H]1Nc1ncc(C(N)=O)c2sc(-c3ccccc3)cc12 |
| 40 | NC(=O)c1ccc(N[C@H]2CCCNC2)c2cc(-c3ccc(F)cc3)[nH]c12 |
| 390 | NC(=O)c1cnc(N[C@H]2CCCNC2)c2cc(-c3ccccc3)oc12 |
| 70 | NC(=O)c1ccc(N[C@H]2CCCNC2)c2cc(-c3ccc(Cl)cc3)[nH]c12 |
| 3300 | NC(=O)c1cnc(N[C@H]2CCCN[C@@H]2CCO)c2cc(-c3ccccc3)sc12 |
| 840 | CN(c1ncc(C(N)=O)c2sc(-c3ccccc3)cc12)[C@H]1CCCNC1 |
| 26 | NC(=O)c1cnc(N[C@H]2CCCNC2)c2cc(-c3ccccc3)sc12 [(S)-2-phenyl-4-(piperidin-3-ylamino)thieno[3,2-c]pyridine-7-carboxamide] |
| 12 | NC(=O)c1cnc(N[C@H]2CCCNC2)c2cc(-c3cccs3)sc12 |
| 53 | NC(=O)c1ccc(N[C@H]2CCCNC2)c2cc(-c3ccccc3)[nH]c12 |
| 10000 | NC(=O)c1cnc(N[C@H]2CCCNC2)c2cc(-n3ccnc3)sc12 |
| 30 | C[C@@H]1CC[C@H](Nc2ncc(C(N)=O)c3sc(-c4ccccc4)cc23)CN1 |
| 410 | NC(=O)c1cnc(N[C@H]2CNCC[C@@H]2O)c2cc(-c3ccccc3)sc12 |
| 150 | Cn1cc(-c2cc3c(N[C@H]4CCCNC4)ncc(C(N)=O)c3s2)cn1 |
| 880 | CN1CCC[C@H](Nc2ncc(C(N)=O)c3sc(-c4ccccc4)cc23)C1 |
| 10 | C[C@@H]1CC[C@H](Nc2ncc(C(N)=O)c3sc(-c4ccccc4)cc23)[C@H](C)N1 |
| 60 | NC(=O)c1cnc(N[C@H]2CCCNC2)c2cc(-c3cnn(Cc4ccccc4)c3)sc12 |
| 10 | NC(=O)c1cnc(N[C@H]2CCCNC2)c2cc(-c3ccsc3)sc12 |
